Literature values in patent US20070134339A1, “ZONISAMIDE AND NSAID NANOPARTICULATE FORMULATIONS” (Elan Pharma International, Limited, priority 2005, published 2007).
Converted amounts (≈) assume the structure as drawn.

Experiments:
[1] = not given; remark: listed apart in the source
[2] = not given; remark: listed apart in the source

pKa: 10.2 | solubility in 0.1 N HCl ([1]; 0.1 N HCl): 500 µg/mL (≈ 2.36 mM) | solubility in water ([1]; water): 800 µg/mL (≈ 3.77 mM) | peak plasma concentrations ([2]; 200-400 mg oral dose, normal volunteers): 2 to 5 µg/mL | time at which peak plasma concentrations occur ([2]; 200-400 mg oral dose, normal volunteers, without food): 2 to 6 h | effect of food on bioavailability ([2]; oral, in the presence of food): no effect | time to maximum concentration ([2]; oral, in the presence of food): 4 to 6 h
SMILES: NS(=O)(=O)Cc1noc2ccccc12 [Zonisamide, 1,2-benzisoxazole-3-methanesulfonamide]
